In patent US6387655B1, “Excitatory amino acid receptor protein and related nucleic acid compounds” (Eli Lilly and Company, priority 1995, dated 2002):
Read-outs that look alike come from different tables or passages of the source.

Target: T1, human HmGluR3 (Homo sapiens, UniProt Q14832)
T1 construct: expressed in transfected cells; host or cells: RGT (RGT-18) cells, i.e. AV12 cells stably expressing the rat glutamate transporter GLAST
Experiment: Inhibition of forskolin-stimulated cAMP synthesis (adenylate cyclase activity) in RGT cells stably transfected with pGTh-HmGluR3
Type: cell-based
Experimental: In an especially preferred embodiment of this invention an assay measuring the inhibition of forskolin-stimulated cAMP synthesis was performed. The inhibition of cAMP synthesis is known to positively correlated with the addition of glutamate to cells containing certain types of metabotropic receptors.
Adenylate cyclase activity was determined in initial experiments in transfected mammalian cells, using standard techniques. See. e.g., N. Adham, et al., supra,; R. L. Weinshank, et al., Proceedings of the National Academy of Sciences (USA), 89:3630-3634 (1992), and the references cited therein.
As noted above, mammalian cells (the cell line RGT) were stably transfected with the plasmid pGTh-HmGluR3, containing human HmGluR3 cDNA inserted in the plasmid vector pGTh, as depicted in FIG. 2. The cells were maintained in a medium consisting of Dulbecco's Modified Eagle's Medium (DMEM) containing 5% dialyzed fetal calf serum, 10 mM HEPES buffer (pH 7.3), 1 mM sodium pyruvate, 1 mM glutamine, and 200 μg/ml hygromycin.
For the assay the cells were disassociated from stock culture flasks with trypsin, and planted in 24-well plastic culture dishes (15 mm wells) at a density of 500-700,000 cells per well using the same culture medium. After twenty four hours incubation in a humidified carbon dioxide incubator, the cell monolayers are washed with buffer (Dulbecco's phosphate-buffered saline containing 0.5 mM isobutylmethylxanthine and 3 mM glucose) and then incubated in the same buffer at 37° C. for 30 minutes. The monolayers are then washed four additional times with buffer.
Drugs and forskolin, or forskolin alone, dissolved in buffer, was added after the final wash. After incubating for 20 minutes at 37° C., 0.5 ml of 8 mM EDTA was added to each well. The plates were then placed in a boiling water bath for about four minutes. The supernatant fluids are then recovered from the wells and lyophilized. Cyclic adenosinemonophosphate (cAMP) determinations were carried out on the lyophilized samples using commercially available radioimmunoassay kits, following the manufacturer's instructions. The cAMP level in wells containing drug was compared to the forskolin controls.

[1] = RGT cells expressing HmGluR3, cAMP by radioimmunoassay versus forskolin controls, 20 minutes at 37° C., read-out: EC50 (potencies of selected agonists for HmGluR3 expressed in RGT cells)

T1 sequence (Q14832 23-879): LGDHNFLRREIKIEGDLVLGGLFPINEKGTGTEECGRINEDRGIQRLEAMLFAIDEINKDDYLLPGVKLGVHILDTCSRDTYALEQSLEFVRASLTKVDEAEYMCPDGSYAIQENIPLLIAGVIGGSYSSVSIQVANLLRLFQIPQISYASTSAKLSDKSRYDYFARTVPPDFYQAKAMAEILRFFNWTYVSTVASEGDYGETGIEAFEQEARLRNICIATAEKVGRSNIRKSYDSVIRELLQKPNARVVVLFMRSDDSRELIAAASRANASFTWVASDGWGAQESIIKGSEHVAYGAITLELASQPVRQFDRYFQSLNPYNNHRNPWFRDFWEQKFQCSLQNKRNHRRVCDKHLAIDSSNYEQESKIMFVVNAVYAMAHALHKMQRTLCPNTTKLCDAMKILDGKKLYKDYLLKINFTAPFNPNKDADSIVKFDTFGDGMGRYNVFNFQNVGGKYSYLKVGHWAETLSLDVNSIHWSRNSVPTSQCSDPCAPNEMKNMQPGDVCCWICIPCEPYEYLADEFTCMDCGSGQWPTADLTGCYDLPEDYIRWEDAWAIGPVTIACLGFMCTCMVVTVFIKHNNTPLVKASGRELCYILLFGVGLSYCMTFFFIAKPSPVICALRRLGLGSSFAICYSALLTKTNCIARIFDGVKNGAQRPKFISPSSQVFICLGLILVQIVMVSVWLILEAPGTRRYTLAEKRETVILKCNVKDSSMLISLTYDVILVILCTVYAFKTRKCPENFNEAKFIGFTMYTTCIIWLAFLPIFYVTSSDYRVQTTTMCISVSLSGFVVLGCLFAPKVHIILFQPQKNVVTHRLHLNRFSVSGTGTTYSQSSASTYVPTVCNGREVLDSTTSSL

Row | Structure (SMILES) | EC50 | EC50 [1]
1 | NC1(C(=O)O)CCC(C(=O)O)C1 (stereo not drawn) [1S,3R-1-aminocyclopentant-1,3-dicarboxylic acid] | 2.23 µM | –
2 | N[C@H](C(=O)O)C1CC1C(=O)O (stereo partly drawn) [L-2-(carboxycyclopropyl)glycine-I] | – | 0.012 µM
3 | N[C@@H](CCC(=O)O)C(=O)O [L-Glutamate, 1-aminopropane-1,3-dicarboxylic acid] | 5.38 µM | –
4 | NC1(C(=O)O)CNC(C(=O)O)C1 (stereo not drawn) [2R,4R-4-aminopyrrolidine-2,4-dicarboxylate] | – | 0.55 µM
